According to patent US6483013B1, “Method for agrobacterium mediated transformation of cotton” (Bayer BioScience N.V., priority 1999, dated 2002):
Values joined by “and” are separate entries in the source; they are usually repeats but may differ in a detail not shown here. Equal entries are not always repeated.

System: cotton embryogenic callus
Assay: β-glucuronidase (GUS) assay of embryogenic cotton callus after cocultivation with Agrobacterium strain A3311
Format: cell-based, cotton (variety Coker 312)
Method: Embryogenic cotton callus was obtained in the following way: Cotton seeds of variety Coker 312 were disinfected using a 12% sodium hypochloride solution, and germinated individually in tubes containing a solution of gelrite 2/g/l H2O and 0.94 g/l MgCl2.6H2O. The tubes were incubated in the dark at 27-28° C. After 10 to 14 days, seedlings are collected, the hypocotyls of the seedlings were cut in segments of about 1 cm and incubated on medium 104 (without plant hormones) at 28° C. under a regime of 16 hr light and 8 hr dark. Every three weeks, the segments were transferred to fresh medium, until embryogenic callus was formed (usually after about 9 weeks). This callus was removed from the explants and cultured further on medium 104.
Agrobacterium strain A 3311 cells were grown on AB medium or MAG medium, collected and resuspended in M104 liquid medium, pH 5.2 (either with or without 100 μM acetosyringone (AS)) or MAG medium at a density of about 1×10^9 CFU/ml. Small embryogenic cotton callus clumps were collected, washed in liquid medium 104 at pH 5.2, and immersed in the Agrobacterium suspension for about 20 minutes. The infected embryogenic calli were than transferred to solid medium 104, pH 5.2, supplemented with either 100 μM AS, 0.5 g/l casamino acids, 100 μM AS and 0.5 g/l casamino acids, or not supplemented at all, and incubated for cocultivation during 4 days in the dark at about 24° C.
After the cocultivation phase, the callus clumps were transferred to selective medium 104 supplemented with 50 mg/l kanamycin and 500mg/l Claforan.
At different time intervals after the cocultivation, samples of embryogenic callus were collected and subjected to a β-glucuronidase assay, using a chromogenic substrate as described by Jefferson et al. (1987; Plant Mol. Biol. Rep. 5: 387-405). The results of these tests are summarized in table 1, and are expressed as the percentage of calli expressing GUS-positive spots.
As a control, experiments were included using tobacco leaf discs co-cultivated with A3311, using mock-inoculated tobacco leaf discs or using mock-inoculated embryogenic cotton callus.

[1] = 100 μM AS only in A3311 resuspension medium M104, cocultivation medium M104 not supplemented
[2] = A3311 resuspended in M104 + 100 μM AS, supplement in cocultivation medium M104
[3] = A3311 resuspended in M104, supplement in cocultivation medium M104
[4] = A3311 resuspended in MAG, supplement in cocultivation medium M104
[5] = no Agrobacterium (mock-inoculated), supplement in cocultivation medium M104

## COc1cc(C(C)=O)cc(OC)c1O [AS, 3,5-dimethoxy-4-hydroxyacetophenone]
[1]
  percentage of calli expressing GUS-positive spots, 4 weeks: 0%
  percentage of calli expressing GUS-positive spots, 6 weeks: 0%
  percentage of calli expressing GUS-positive spots, 8 weeks: Dead
  percentage of calli expressing GUS-positive spots, 4 days: 0%
  percentage of calli expressing GUS-positive spots, 11 days: 0%
[2]
  percentage of calli expressing GUS-positive spots, 8 weeks: 90% and 50%
  percentage of calli expressing GUS-positive spots, 11 days: 70% and 90%
[3]
  percentage of calli expressing GUS-positive spots, 6 weeks: 15% and 25%
  percentage of calli expressing GUS-positive spots, 8 weeks: 20%
  percentage of calli expressing GUS-positive spots, 11 days: 50% and 90%
A3311 resuspended in MAG, supplement in cocultivation medium M104 (100 μM AS and/or 0.5 g/l cas. acids)
  percentage of calli expressing GUS-positive spots, 4 days: 90%
[4]
  percentage of calli expressing GUS-positive spots, 4 weeks: 50%
  percentage of calli expressing GUS-positive spots, 6 weeks: 50% and 90%
  percentage of calli expressing GUS-positive spots, 8 weeks: 90% and 80%
  percentage of calli expressing GUS-positive spots, 11 days: 90%
Both for transient expression and after prolonged cultivation of the transformed calli
  need for inclusion during Agrobacterium mediated transformation of embryogenic callus: required
No Agrobacterium (mock-inoculated), supplement in cocultivation medium M104 (100 μM AS and/or 0.5 g/l cas. acids)
  percentage of calli expressing GUS-positive spots, 4 days: 0%
[5]
  percentage of calli expressing GUS-positive spots, 4 weeks: 0%
  percentage of calli expressing GUS-positive spots, 6 weeks: 0%
  percentage of calli expressing GUS-positive spots, 8 weeks: Dead
  percentage of calli expressing GUS-positive spots, 11 days: 0%
